From US8106004B2, “Methods of inhibiting tumor cell aggressiveness using the microenvironment of human embryonic stem cells” (Children's Memorial Hospital, priority 2006, dated 2012)

Tested on: Nodal
Assay: Nodal expression in C8161 cells (Western blot, real time RT-PCR)
Assay type: cell-based, human
Settings: anti-Nodal Morpholino
Protocol: A determination of the effects of H9 CMTX on Nodal expression in metastatic melanoma (C8161) and breast carcinoma (MDA-MB-231) cells was undertaken. […] Exposure to H9 CMTX similarly abrogates Nodal mRNA expression in the melanoma and breast carcinoma cells (FIG. 9C).
Protein lysates were prepared and quantified as previously described in Hess et al., 2001, Cancer Res. 61:3250-3255. Equal amounts of protein were separated by SDS-polyacrylamide gel electrophoresis under reducing conditions, and the resolved proteins were transferred onto Immobilon-P membranes (Millipore Corp., Bedford, Mass.). Membranes were blocked in 1% TBS, 0.1% Tween 20 (TBS-T) and 5% dry milk powder or 3% gelatin (for Nodal Westerns). Blots were incubated with anti-Nodal or anti-Lefty antibodies (Polyclonal rabbit anti-Nodal (H-110) 1:500 Santa Cruz Biotechnology, Santa Cruz, Calif.; Polyclonal goat anti-Lefty 1:500 R&D Systems, Minneapolis, Minn.), washed in TBS-T, and incubated with the appropriate horseradish peroxidase-labeled secondary antibody. Secondary antibodies were detected by enhanced chemiluminescence (Super Signal; Pierce, Rockford, Ill.) and exposure to autoradiography film (Molecular Technologies, St Louis, Mo.). Nodal protein was detected as two major bands at ˜48 and ˜35 kDa representing precursor and pro-Nodal respectively. Nodal often appeared as multiple bands, likely due to degradation of protein modifications. All experiments were done at least three times.
The derivation and phenotypic characteristics of the human melanoma cell lines have been previously described. Seftor, et. al., 2002, Clin. Experim. Metastas. 19:233-246; Seftor, et. al., 2005 Cancer Res. 65:10164-10169. The melanoma cell lines are maintained in RPMI 1640 medium (Invitrogen) supplemented with 10% fetal bovine serum (FBS, Gemini Bioproducts) and 0.1% gentamycin sulfate with the exception of C81-61 cells which are maintained in Ham's FIO medium supplemented with 15% FBS, 1X Mito+ (BD Bioscience) and gentamycin sulfate. […] The cultures are determined to be free of mycoplasma contamination using a PCR-based assay (Roche). […]

MO^Nodal: FITC-conjugated anti-sense Morpholino to Nodal, 5′-AAGCAGCACCTCCAGCCCTTATATC-3′ [SEQ ID NO: 20] (all phosphorodiamidate morpholino (PMO); FITC conjugated, position not given here)
Nodal expression: down-regulation of Nodal
